Experiments:
UACC-257 cells = experiment: Cell proliferation PAD assay, UACC-257; format: cell-based; settings: Homo sapiens, UACC257 cells, 6pt, 48 hours
Method: (§1) Cell lines used are available from American Type Culture Collection (ATCC), for example, cell cultures containing A549 (ATCC# CCL-185), HeLa (ATCC# CCL-2), HCT116 ATTC# CCL-247), and H1299 (ATCC# CRL-5803) cells were maintained in T175 flasks following the ATCC recommended media and handling procedures. […] A 20,000 cells/ml solution was made for plating. Cells were plated in black Packard 96 well plates by placing 100 μl per well (2,000 cells per well). […] The definitions of the cell types used are as follows: A549 is lung carcinoma; HI 299 is non-small cell lung carcinoma; HI 155 is non-small cell lung carcinoma; AsPC-1 is pancreatic adenocarcinoma; Caov-3 is ovarian adenocarcinoma; COLO 205 is colorectal adenocarcinoma; DLD-1 colorectal adenocarcinoma; HCT116 is colorectal carcinoma; DU 145 is prostate carcinoma; ES-2 is ovarian clear cell carcinoma; H460 is large cell lung carcinoma; HELA is cervical adenocarcinoma; MIA PaCa-2 is pancreatice carcinoma; OVCAR-3 is ovarian adenocarcinoma; OVCAR8 is ovarian carcinoma; PC3 is prostate adenocarcinoma; SK-OV-3 is ovarian adenocarcinoma; SU86.86 is pancreatic carcinoma; TOV-21G is avarian clear cell carcinoma; U2OS is bone osteosarcoma; is ASPC-I is pancreatic adenocarcinoma; BXPC-3 is pabcreatic adenocarcinoma; HL60 is promyeloblast promyelocytic leukemia; K562 is bone marrow chronic myelogenous leukemia; L1210 is mouse lymphocytic leukemia; MOLT3 is T lymphoblast acute lymphoblastic leukemia; MOLT4 is T lymphoblast acute lymphoblastic leukemia; SW620 is colorectal adenocarcinoma; THP-1 is monocyte acute monocytic leukemia; U937 is histiocytic lymphoma; and UACC-257 is melanoma.
(§2) Compounds and additional media were added 24 hours after cell plating. […] All compound testing was done in duplicate using 6.3 fold dilutions starting with 10 mM. […] Taxol and at least one additional control were run on all plates. Three microliters of the compound master plate were added to deep well blocks containing 750 μl of RPMI media. One hundred microliters were transferred from the compound/media deep well blocks to the plated cells resulting in a 500 fold dilution of the compounds. Cells were grown at 37° C., 5% CO2 for 48 hours.
(§3) Cells to be analyzed by photography were fixed and stained. One hundred microliters of media were removed and 100 μl of 9.3% formamide was added to each well. Plates were left on the benchtop for 45 minutes. A staining solution containing 1.55 μl of 1 mg/ml DAPI added to 18.75 ml PBS was warmed for 15 minutes at 37° C. The cells were aspirated prior to washing with 100 μl of PBS. Seventy microliters of PBS were aspirated and 170 μl of the DAPI solution were added to each well of fixed cells. Plates were left at room temperature for one hour then aspirated and washed twice with 100 μl of PBS. The stained cells were left at 4° C. for a minimum of 16 hours before photographic analysis with Array Scan II (Cellomics). Analysis of the photographic images to determine numbers of live cells (proliferation), apoptotic cells and dead cells, were according to the methods described in U.S. Utility patent application Ser. No. 10/652,440, which incorporated herein in its entirety.

OVCAR8 cells = experiment: Cell proliferation PAD assay, OVCAR8; format: cell-based; settings: Homo sapiens, OVCAR-8, 6pt, 48 hours
Method: as §1, §2, §3

U2OS cells = experiment: Cell proliferation PAD assay, U2OS; format: cell-based; settings: Homo sapiens, 6pt, 48 hours
Source text: Table 3 illustrates the inhibitory activity of the compounds of the invention determined by the PAD assay described above in a number of cell types. Apoptosis was not
as §1
Compounds and additional media were added 24 hours after cell plating. A compound master plate was created with concentrations 500 times greater than the final concentration added to the cells. All compound testing was done in duplicate using 6.3 fold dilutions starting with 10 mM. All outside wells (and 4 internal wells) were DMSO controls. Taxol and at least one additional control were run on all plates. Three microliters of the compound master plate were added to deep well blocks containing 750 μl of RPMI media. One hundred microliters were transferred from the compound/media deep well blocks to the plated cells resulting in a 500 fold dilution of the compounds. Cells were grown at 37° C., 5% CO2 for 48 hours.
as §3

ROC1/CUL1 = target: T1, ROC1/CUL1 (Homo sapiens, UniProt P62877+Q13616); experiment: ROC1/CUL1 ubiquitin ligase assay (SCF assay); format: biochemical
T1 construct: made in house
T1 sequence (P62877 whole entry): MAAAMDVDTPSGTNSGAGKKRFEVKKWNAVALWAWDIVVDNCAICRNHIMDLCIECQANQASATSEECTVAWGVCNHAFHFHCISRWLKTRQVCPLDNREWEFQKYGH
T1 sequence (Q13616 whole entry): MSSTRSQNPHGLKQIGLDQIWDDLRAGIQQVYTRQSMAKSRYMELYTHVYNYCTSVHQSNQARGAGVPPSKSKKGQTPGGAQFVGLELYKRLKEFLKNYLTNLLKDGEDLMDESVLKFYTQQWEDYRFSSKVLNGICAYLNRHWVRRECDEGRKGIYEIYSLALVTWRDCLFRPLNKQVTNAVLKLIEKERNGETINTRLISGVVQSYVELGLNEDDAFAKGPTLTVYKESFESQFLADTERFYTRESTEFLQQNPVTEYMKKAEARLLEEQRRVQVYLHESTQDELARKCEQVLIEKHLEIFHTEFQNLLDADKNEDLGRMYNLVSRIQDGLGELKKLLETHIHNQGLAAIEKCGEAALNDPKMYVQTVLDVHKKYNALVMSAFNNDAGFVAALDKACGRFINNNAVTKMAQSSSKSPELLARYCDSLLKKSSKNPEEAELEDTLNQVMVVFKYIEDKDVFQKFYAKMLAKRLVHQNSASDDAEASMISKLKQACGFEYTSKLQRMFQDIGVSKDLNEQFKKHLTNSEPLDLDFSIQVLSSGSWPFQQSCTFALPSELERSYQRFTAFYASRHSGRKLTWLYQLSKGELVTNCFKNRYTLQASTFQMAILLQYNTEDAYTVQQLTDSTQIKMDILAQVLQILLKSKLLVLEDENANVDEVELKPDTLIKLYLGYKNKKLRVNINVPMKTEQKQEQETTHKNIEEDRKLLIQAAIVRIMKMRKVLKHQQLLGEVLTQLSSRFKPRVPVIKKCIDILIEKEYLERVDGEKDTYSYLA
Procedure, shortened: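 His-ROC1/CUL1 (100 ng/well) with E1 (5 ng/well), UbcH5c E2 (25 nl/well) and Flag-ubiquitin (100 ng) on nickel-coated plates; the reaction solution held Tris pH 7.5, MgCl2, DTT and 2.5 mM ATP. Compounds were added and the reaction ran 1 h at RT. Bound ubiquitin was read by anti-Flag/HRP luminescence, giving IC50 across compound concentrations.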

| SMILES | IC50 (UACC-257 cells) [µM] | IC50 (OVCAR8 cells) [µM] | IC50 (U2OS cells) [µM] | IC50 (ROC1/CUL1) [µM] |
| --- | --- | --- | --- | --- |
| O=[N+]([O-])c1ccc(Sc2cccc3cccnc23)c2nonc12 [compound 5, 8-[(7-Nitro-2,1,3-benzoxadiazol-4-yl)thio]quinoline] | < 1 | < 1 |  |  |
| O=[N+]([O-])c1ccc(Oc2c(Cl)cc(S(=O)(=O)Nc3cccc4nsnc34)cc2Cl)c(Cl)c1 [compound 73, N-2,1,3-benzothiadiazol-4-yl-3,5-dichloro-4-(2-chloro-4-nitrophenoxy)benzenesulfonamide] | ≥ 20 | ≥ 20 |  |  |
| O=S(=O)(Nc1cccc2nonc12)c1ccc(Oc2ncc(C(F)(F)F)cc2Cl)cc1 [compound 78, N-2,1,3-benzoxadiazol-4-yl-4-{[3-chloro-5-(trifluoromethyl)pyridin-2-yl]oxy}benzenesulfonamide] | 1 to 20 | 1 to 20 |  |  |
| O=[N+]([O-])c1ccc(N2CCN(c3cc(C(F)(F)F)ccn3)CC2)c2nonc12 [compound 90, 4-nitro-7-{4-[4-(trifluoromethyl)pyridin-2-yl]piperazin-1-yl}-2,1,3-benzoxadiazole] | ≥ 20 | ≥ 20 |  |  |
| O=S(=O)(Nc1cccc2nsnc12)c1ccc(Oc2ccccc2)cc1 [compound 94, N-2,1,3-benzothiadiazol-4-yl-4-phenoxybenzenesulfonamide] | 1 to 20 | 1 to 20 |  |  |
| O=[N+]([O-])c1ccc(Oc2ccc(S(=O)(=O)Nc3cccc4nonc34)cc2Cl)c(C(F)(F)F)c1 [compound 114, N-2,1,3-benzoxadiazol-4-yl-3-chloro-4-[4-nitro-2-(trifluoromethyl)phenoxy]benzenesulfonamide] | 1 to 20 | 1 to 20 |  |  |
| Cc1ccc(N2CCN(c3ccc([N+](=O)[O-])c4nonc34)CC2)cc1C [compound 140, 4-[4-(3,4-dimethylphenyl)piperazin-1-yl]-7-nitro-2,1,3-benzoxadiazole] | 1 to 20 | 1 to 20 |  |  |
| N#CC1(c2ccccc2)CCN(c2ccc([N+](=O)[O-])c3nonc23)CC1 [compound 141, 1-(7-nitro-2,1,3-benzoxadiazol-4-yl)-4-phenylpiperidine-4-carbonitrile] | ≥ 20 | ≥ 20 |  |  |
| O=C(c1ccc(F)cc1)C1CCN(c2ccc([N+](=O)[O-])c3nonc23)CC1 [compound 142, (4-fluorophenyl)[1-(7-nitro-2,1,3-benzoxadiazol-4-yl)piperidin-4-yl]methanone] | 1 to 20 | 1 to 20 |  |  |
| CC1CC(C)CN(c2ccc([N+](=O)[O-])c3nonc23)C1 (centres unmarked) [compound 144, 4-(3,5-dimethylpiperidin-1-yl)-7-nitro-2,1,3-benzoxadiazole] | ≥ 20 | ≥ 20 |  |  |
| Cc1ccc(Cl)cc1N1CCN(c2ccc([N+](=O)[O-])c3nonc23)CC1 [compound 145, 4-[4-(5-chloro-2-methylphenyl)piperazin-1-yl]-7-nitro-2,1,3-benzoxadiazole] | ≥ 20 | ≥ 20 |  |  |
| O=[N+]([O-])c1ccc(N2CCN(c3ccc(O)cc3)CC2)c2nonc12 [compound 146, 4-[4-(7-nitro-2,1,3-benzoxadiazol-4-yl)piperazin-1-yl]phenol] | 1 to 20 | 1 to 20 |  |  |
| O=[N+]([O-])c1ccc(N2CCN(c3ncccc3C(F)(F)F)CC2)c2nonc12 [compound 148, 4-nitro-7-{4-[3-(trifluoromethyl)pyridin-2-yl]piperazin-1-yl}-2,1,3-benzoxadiazole] | 1 to 20 | 1 to 20 |  |  |
| CCOC(=O)c1cc(C#N)c(C)nc1N1CCN(c2ccc([N+](=O)[O-])c3nonc23)CC1 [compound 153, ethyl 5-cyano-6-methyl-2-[4-(7-nitro-2,1,3-benzoxadiazol-4-yl)piperazin-1-yl]nicotinate] | ≥ 20 | ≥ 20 |  |  |
| O=[N+]([O-])c1ccc(Sc2nc3ccccc3s2)c2nonc12 [compound 158, 4-(1,3-benzothiazol-2-ylthio)-7-nitro-2,1,3-benzoxadiazole] | 1 to 20 | 1 to 20 |  |  |
| O=[N+]([O-])c1ccc(N2CCC(O)(c3ccc(Cl)cc3)CC2)c2nonc12 [compound 159, 4-(4-chlorophenyl)-1-(7-nitro-2,1,3-benzoxadiazol-4-yl)piperidin-4-ol] | ≥ 20 | 1 to 20 |  |  |
| COC(=O)c1ccc(NS(=O)(=O)c2ccc(F)c3nonc23)cc1 [compound 167, methyl 4-{[(7-fluoro-2,1,3-benzoxadiazol-4-yl)sulfonyl]amino}benzoate] |  |  | < 1 |  |
| O=S(=O)(Oc1ccc(N2CCN(S(=O)(=O)c3ccc(Cl)c4nonc34)CC2)cc1)c1ccc(Cl)c2nonc12 [compound 171, 4-{4-[(7-chloro-2,1,3-benzoxadiazol-4-yl)sulfonyl]piperazin-1-yl}phenyl 7-chloro-2,1,3-benzoxadiazole-4-sulfonate] |  |  | < 1 |  |
| CC1CC(C)CN(S(=O)(=O)c2ccc(Cl)c3nonc23)C1 (centres unmarked) [compound 192, 4-chloro-7-[(3,5-dimethylpiperidin-1-yl)sulfonyl]-2,1,3-benzoxadiazole] |  |  |  | ≥ 20 |
| N#CC1(c2ccccc2)CCN(S(=O)(=O)c2ccc(O)c3nonc23)CC1 [compound 199, 1-[(7-hydroxy-2,1,3-benzoxadiazol-4-yl)sulfonyl]-4-phenylpiperidine-4-carbonitrile] |  |  |  | ≥ 20 |
| N#Cc1ccc(N2CCN(S(=O)(=O)c3c(Cl)ccc4nonc34)CC2)nc1 [compound 209, 6-{4-[(5-chloro-2,1,3-benzoxadiazol-4-yl)sulfonyl]piperazin-1-yl}nicotinonitrile] |  |  |  | ≥ 20 |
| CC(=O)N1CCN(S(=O)(=O)c2c(Sc3cccc4cccnc34)ccc3nonc23)CC1 [compound 214, 8-({4-[(4-acetylpiperazin-1-yl)sulfonyl]-2,1,3-benzoxadiazol-5-yl}thio)quinoline] |  |  |  | ≥ 20 |
| O=S(=O)(c1ccc(Sc2ccc(O)cc2)c2nonc12)N1CCC(Oc2ncccn2)CC1 [compound 226, 4-[(7-{[4-(pyrimidin-2-yloxy)piperidin-1-yl]sulfonyl}-2,1,3-benzaxadiazol-4-yl)thio]phenol] |  |  |  | ≥ 20 |
| O=S(=O)(Nc1ccc(F)c(F)c1)c1ccc(Cl)c2nonc12 [compound 262, 7-chloro-N-(3,4-difluorophenyl)-2,1,3-benzoxadiazole-4-sulfonamide] |  |  |  | ≥ 20 |
| O=S(=O)(Nc1cccc(F)c1)c1ccc(Cl)c2nonc12 [compound 263, 7-chloro-N-(3-fluorophenyl)-2,1,3-benzoxadiazole-4-sulfonamide] |  |  |  | ≥ 20 |
| Cc1cc(C)cc(-c2cccc3nonc23)c1 [compound 285, 4-(3,5-Dimethylphenyl)-2,1,3-benzoxadiazole] |  |  |  | ≥ 20 |
| O=[N+]([O-])c1ccc(N2CCN(c3ncc(C(F)(F)F)cc3Cl)CC2)c2nonc12 [compound 315, 4-{4-[3-chloro-5-(trifluoromethyl)pyrindin-2-yl]piperazin-1-yl}-7-nitro-2,1,3-benzoxadiazole] | ≥ 20 | 1 to 20 |  |  |

From patent US20050282818A1, “Ubiquitin ligase inhibitors” (Rigel Pharmaceuticals, Inc., priority 2004, published 2005)
